Reference: patent EP4603105A1, “PHARMACEUTICAL COMPOSITION CONTAINING CYCLIC COMPOUND HAVING SELECTIVE KRAS INHIBITORY EFFECT AGAINST HRAS AND NRAS” (CHUGAI SEIYAKU KABUSHIKI KAISHA, priority 2022, dated 2024)
*1 amine or outer side, *2 acyl side, *3 side chain or, on linkers, in order; H or OH if unused. Where a SMILES comes first, the peptide text is derived from it. Bridges are numbered along the chain shown (N, C = ends). [ ]: non-standard residue; d: D form. The star is where a group is joined. hPhe(3-Cl-4-CF3) = N[C@@H](CCc1ccc(C(F)(F)F)c(Cl)c1)C(=O)O; X33 = O=C([C@H](Cc1ccc(C(F)(F)F)cc1)N(CC1CC1)[*:1])[*:2]; NPrPhe(4-CF3) = CCCN[C@@H](Cc1ccc(C(F)(F)F)cc1)C(=O)O; NMeGly(cPent) = CN[C@H](C(=O)O)C1CCCC1; X9 = CC1(C)CN([*:1])[C@@H]1C(=O)[*:2]; Hyp = O=C(O)[C@@H]1C[C@@H](O)CN1; NMeD = CN[C@@H](CC(=O)O)C(=O)O; NMeL = CN[C@@H](CC(C)C)C(=O)O; Ac6c = NC1(C(=O)O)CCCCC1; Morpholide = C1CN(*)CCO1; NMeA = CN[C@@H](C)C(=O)O; Ac5c = NC1(C(=O)O)CCCC1; Aze = O=C(O)[C@@H]1CCN1; Ac4c = NC1(C(=O)O)CCC1; NEtG = CCNCC(=O)O; Sar = CNCC(=O)O

How the values were obtained:
[1] = target: GDP-bound NRAS wild-type protein (Homo sapiens, UniProt P01111); experiment: Binding to NRAS by surface plasmon resonance (SPR), KD and KD ratio to KRAS
Outline: (§1)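 Each cycle, GDP-bound biotin-Avi RAS was captured (~100–300 RU), compound concentrations were injected low to high for 75 s each at 100 µL/min, then the chip was regenerated. Buffer: HBS pH 7.4, 10 mM MgCl2, 10 µM GDP, 1 mM DTT, 4% DMSO; 30°C. KD from a 1:1 binding model.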

HRAS wild-type protein = HRAS wild-type protein (Homo sapiens, UniProt P01112); experiment: Binding to HRAS by surface plasmon resonance (SPR), KD and KD ratio to KRAS
Outline: as §1

[2] = tested on: human lung cancer strain NCI-H441; assay type: cell-based
Outline: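 Signal came from […] measured per well once the reagent was added. Beforehand, cells were cultured at 37°C and 5% carbon dioxide on a compound series serially diluted in dimethyl sulfoxide.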

[3] = ratio of the KD value with respect to GDP-bound NRAS wild-type protein to the KD value with respect to KRAS
[4] = ratio of the KD value with respect to HRAS wild-type protein to the KD value with respect to KRAS
[5] = ratio of KD for GDP-bound NRAS wild-type protein to KD for KRAS
[6] = ratio of KD for HRAS wild-type protein to KD for KRAS
[7] = ratio of KD value for GDP-bound NRAS wild-type protein to KD value for KRAS (SPR)
[8] = ratio of KD value for HRAS wild-type protein to KD value for KRAS (SPR)

Sequence of HRAS wild-type protein (P01112 whole entry): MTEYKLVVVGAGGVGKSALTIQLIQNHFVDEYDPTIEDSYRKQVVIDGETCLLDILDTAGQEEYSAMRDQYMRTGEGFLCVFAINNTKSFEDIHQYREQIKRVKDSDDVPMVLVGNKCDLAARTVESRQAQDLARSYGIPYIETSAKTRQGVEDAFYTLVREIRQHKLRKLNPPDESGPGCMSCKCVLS
Sequence of GDP-bound NRAS wild-type protein (P01111 whole entry): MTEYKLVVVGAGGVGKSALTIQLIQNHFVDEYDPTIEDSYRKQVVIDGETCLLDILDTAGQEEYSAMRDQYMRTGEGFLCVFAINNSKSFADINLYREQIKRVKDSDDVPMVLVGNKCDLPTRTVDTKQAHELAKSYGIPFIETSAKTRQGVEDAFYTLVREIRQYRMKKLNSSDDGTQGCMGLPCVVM

IC50 [2]	Compound	NRAS /KRAS [1, 3]	HRAS /KRAS (HRAS wild-type protein; [4])	NRAS /KRAS [1, 5]	HRAS /KRAS (HRAS wild-type protein; [6])	NRAS /KRAS [1, 7]	HRAS /KRAS (HRAS wild-type protein; [8])
15.6 nM	CCC[C@H]1C(=O)N[C@@H]([C@@H](C)CC)C(=O)N(C2CC2)CC(=O)N(C)[C@H]2C/C=C\CCN(C2=O)[C@@H](CC2CCC(F)(F)CC2)C(=O)N(C)CC(=O)N[C@@H](CCc2ccc(C(F)(F)F)c(OC)c2)C(=O)N2C[C@H](OCC)C[C@H]2C(=O)N(C)C2(CCC2)C(=O)N(C)[C@@H](C2CCCC2)C(=O)N(C)[C@H](C(=O)N(C)C)CC(=O)N1C [PP2352]	A (a compound having 10 or more and less than 20 is denoted as A)	A (a compound having 10 or more and less than 20 is denoted as A)	–	–	–	–
10.9 nM	CCCN1C(=O)[C@@H]2CCN2C(=O)[C@H](C)N(C)C(=O)[C@H]([C@@H](C)CC)NC(=O)[C@H](CC(C)C)N(C)C(=O)C[C@@H](C(=O)N2CCOCC2)NC(=O)[C@H](C2CCCC2)N(C)C(=O)C2(CCCC2)NC(=O)[C@@H]2C[C@@H](OCC)CN2C(=O)[C@H](CCc2ccc(C(F)(F)F)c(Cl)c2)NC(=O)CN(C)C(=O)[C@@H]1Cc1ccc(C(F)(F)F)cc1 [PP0347] ([NMeL]I[NMeA][Aze][NPrPhe(4-CF3)][Sar][hPhe(3-Cl-4-CF3)][Hyp](Et)[Ac5c][NMeGly(cPent)]D-Morpholide; lactam N-11)	–	–	C (A compound having a KD ratio of 0.1 or more and less than 3 is denoted as C)	B (a compound having 3 or more and less than 10 is denoted as B)	–	–
4.3 nM	CCCN1C(=O)CN(C)C(=O)CN(CC)C(=O)[C@H]([C@@H](C)CC)NC(=O)[C@H](CC(C)C)N(C)C(=O)C[C@@H](C(=O)N2CCOCC2)N(C)C(=O)[C@H](C2CCCC2)N(C)C(=O)C2(CCCC2)NC(=O)[C@@H]2C[C@@H](OC)CN2C(=O)[C@H](CCc2ccc(C(F)(F)F)c(Cl)c2)NC(=O)CN(C)C(=O)[C@@H]1Cc1ccc(C(F)(F)F)cc1 [PP0296] ([NMeL]I[NEtG][Sar][NPrPhe(4-CF3)][Sar][hPhe(3-Cl-4-CF3)][Hyp](Me)[Ac5c][NMeGly(cPent)][NMeD]-Morpholide; lactam N-11)	–	–	B (a compound having 3 or more and less than 10 is denoted as B)	C (A compound having a KD ratio of 0.1 or more and less than 3 is denoted as C)	–	–
86.2 nM	CCO[C@@H]1C[C@H]2C(=O)NC3(CCCC3)C(=O)N(C)[C@@H](C3CCCC3)C(=O)N(C)[C@H](C(=O)N(C)C)CC(=O)N(C)[C@@H](CC(C)C)C(=O)N[C@@H]([C@@H](C)CC)C(=O)N(C)CC(=O)N(C)[C@H]3CC(C)=CCN(C3=O)[C@@H](Cc3ccc(C(F)(F)F)cc3)C(=O)N(C)CC(=O)N[C@@H](CCc3cc(F)c(C(F)(F)F)c(F)c3)C(=O)N2C1 [PP1031]	–	–	C (A compound having a KD ratio of 0.1 or more and less than 3 is denoted as C)	C (A compound having a KD ratio of 0.1 or more and less than 3 is denoted as C)	–	–
7.8 nM	CC[C@H](C)[C@@H]1NC(=O)[C@H](C2CC2)N(C)C(=O)C[C@@H](C(=O)N(C)C)N(C)C(=O)[C@H](C2CCCC2)N(C)C(=O)C2(CCC2)N(C)C(=O)[C@@H]2CCCN2C(=O)[C@H](CCc2cc(F)c(C(F)(F)F)c(F)c2)NC(=O)CN(C)C(=O)[C@H](Cc2ccc(C)cc2)N2CC/C=C\C[C@@H](C2=O)N(C)C(=O)CN(C)C1=O [PP1784]	–	–	–	–	A (a compound having 10 or more and less than 20 is denoted as A)	B (a compound having 3 or more and less than 10 is denoted as B)
5.7 nM	CCCOC[C@H]1C(=O)N[C@@H]([C@@H](C)CC)C(=O)N2CCC[C@H]2C(=O)N(C)[C@H]2C/C=C\CCN(C2=O)[C@@H](Cc2ccc(C)cc2)C(=O)N(C)CC(=O)N[C@@H](CCc2ccc(C(F)(F)F)c(OC)c2)C(=O)N2C[C@H](OCC)C[C@H]2C(=O)N(C)C2(CCC2)C(=O)N(C)[C@@H](C2CCCC2)C(=O)N(C)[C@H](C(=O)N(C)C)CC(=O)N1C [PP2334]	A (a compound having 10 or more and less than 20 is denoted as A)	B (a compound having 3 or more and less than 10 is denoted as B)	–	–	–	–
15.1 nM	CCCN1C(=O)[C@@H]2CCN2C(=O)[C@H](C)N(C)C(=O)[C@H]([C@@H](C)CC)NC(=O)[C@H](CC(C)C)N(C)C(=O)C[C@@H](C(=O)N2CCOCC2)NC(=O)[C@H](C2CCCC2)N(C)C(=O)C2(CCC2)NC(=O)[C@@H]2C[C@@H](OCC)CN2C(=O)[C@H](CCc2ccc(C(F)(F)F)c(Cl)c2)NC(=O)CN(C)C(=O)[C@@H]1Cc1ccc(C(F)(F)F)cc1 [PP0348] ([NMeL]I[NMeA][Aze][NPrPhe(4-CF3)][Sar][hPhe(3-Cl-4-CF3)][Hyp](Et)[Ac4c][NMeGly(cPent)]D-Morpholide; lactam N-11)	–	–	C (A compound having a KD ratio of 0.1 or more and less than 3 is denoted as C)	B (a compound having 3 or more and less than 10 is denoted as B)	–	–
9.7 nM	CCO[C@@H]1C[C@H]2C(=O)NC3(CC(C)(C)C3)C(=O)N(C)[C@@H](C(CC)CC)C(=O)N(C)[C@H](C(=O)N(C)C)CC(=O)N(C)[C@@H](CC)C(=O)N[C@@H]([C@@H](C)CC)C(=O)N(C)CC(=O)N(C)[C@H]3C/C=C\CCN(C3=O)[C@@H](Cc3ccc(C)cc3)C(=O)N(C)CC(=O)N[C@@H](CCc3cc(F)c(C(F)(F)F)c(F)c3)C(=O)N2C1 [PP2147]	A (a compound having 10 or more and less than 20 is denoted as A)	B (a compound having 3 or more and less than 10 is denoted as B)	–	–	–	–
26.2 nM	CC[C@H](C)[C@@H]1NC(=O)[C@H](CC)N(C)C(=O)C[C@@H](C(=O)N(C)C)N(C)C(=O)[C@H](C2CCCC2)N(C)C(=O)C2(CCCC2)N(C)C(=O)[C@@H]2C[C@@H](C)CN2C(=O)[C@H](CCc2cc(F)c(C(F)(F)F)c(F)c2)NC(=O)CN(C)C(=O)[C@H](Cc2ccc(C)cc2)N2CC/C=C\C[C@@H](C2=O)N(C)C(=O)[C@@H]2CCCN2C1=O [PP1814]	–	–	–	–	A (a compound having 10 or more and less than 20 is denoted as A)	A (a compound having 10 or more and less than 20 is denoted as A)
6.1 nM	CCC[C@H]1C(=O)N[C@@H]([C@@H](C)CC)C(=O)N(C2CC2)CC(=O)N(C)[C@H]2C/C=C\CCN(C2=O)[C@@H](Cc2ccc(C)cc2)C(=O)N(C)CC(=O)N[C@@H](CCc2cc(F)c(C(F)(F)F)c(F)c2)C(=O)N2C[C@H](OCC)C[C@H]2C(=O)N(C)C2(CCC2)C(=O)N(C)[C@@H](C2CCCC2)C(=O)N(C)[C@H](C(=O)N2CCCC2)CC(=O)N1C [PP3113]	–	–	A (a compound having 10 or more and less than 20 is denoted as A)	A (a compound having 10 or more and less than 20 is denoted as A)	–	–
13.1 nM	CCCN1C(=O)CN(C)C(=O)CN(C)C(=O)[C@H]([C@@H](C)CC)NC(=O)[C@H](CC(C)C)N(C)C(=O)C[C@@H](C(=O)N2CCOCC2)N(C)C(=O)[C@H](C2CCCC2)N(C)C(=O)C2(CCCCC2)NC(=O)[C@@H]2CCCN2C(=O)[C@H](CCc2ccc(C(F)(F)F)c(Cl)c2)NC(=O)CN(C)C(=O)[C@@H]1Cc1ccc(C(F)(F)F)cc1 [PP0231] ([NMeL]I[Sar][Sar][NPrPhe(4-CF3)][Sar][hPhe(3-Cl-4-CF3)]P[Ac6c][NMeGly(cPent)][NMeD]-Morpholide; lactam N-11)	–	–	B (a compound having 3 or more and less than 10 is denoted as B)	C (A compound having a KD ratio of 0.1 or more and less than 3 is denoted as C)	–	–
9 nM	CC[C@H](C)[C@@H]1NC(=O)[C@H](CC(C)C)N(C)C(=O)C[C@@H](C(=O)N2CCOCC2)N(C)C(=O)[C@H](C2CCCC2)N(C)C(=O)C2(CCCC2)NC(=O)[C@@H]2CCCN2C(=O)[C@H](CCc2ccc(C(F)(F)F)c(Cl)c2)NC(=O)CN(C)C(=O)[C@H](Cc2ccc(C(F)(F)F)cc2)N(CC2CC2)C(=O)[C@@H]2CCN2C(=O)[C@H](C)N(C)C1=O [PP0108] ([NMeL]I[NMeA][Aze][X33][Sar][hPhe(3-Cl-4-CF3)]P[Ac5c][NMeGly(cPent)][NMeD]-Morpholide; lactam N-11)	–	–	C (A compound having a KD ratio of 0.1 or more and less than 3 is denoted as C)	C (A compound having a KD ratio of 0.1 or more and less than 3 is denoted as C)	–	–
55.9 nM	CCO[C@@H]1C[C@H]2C(=O)NC3(CCCC3)C(=O)N(C)[C@@H](C3CCCC3)C(=O)N(C)[C@H](C(=O)N(C)C)CC(=O)N(C)[C@@H](CC)C(=O)N[C@@H]([C@@H](C)CC)C(=O)N(C)CC(=O)N(C)[C@H]3C/C=C\CCN(C3=O)[C@@H](Cc3ccc(C(F)(F)F)cc3)C(=O)N(C)CC(=O)N[C@@H](CCc3cc(C)c(Cl)c(C)c3)C(=O)N2C1 [PP1823]	–	–	–	–	A (a compound having 10 or more and less than 20 is denoted as A)	A (a compound having 10 or more and less than 20 is denoted as A)
26.6 nM	CCCN1C(=O)CN(C)C(=O)[C@H]2N(CC2(C)C)C(=O)[C@H]([C@@H](C)CC)NC(=O)[C@H](CC(C)C)N(C)C(=O)C[C@@H](C(=O)N2CCOCC2)N(C)C(=O)[C@H](C2CCCC2)N(C)C(=O)C2(CCCC2)NC(=O)[C@@H]2CCCN2C(=O)[C@H](CCc2ccc(C(F)(F)F)c(Cl)c2)NC(=O)CN(C)C(=O)[C@@H]1Cc1ccc(C(F)(F)F)cc1 [PP0256] ([NMeL]I[X9][Sar][NPrPhe(4-CF3)][Sar][hPhe(3-Cl-4-CF3)]P[Ac5c][NMeGly(cPent)][NMeD]-Morpholide; lactam N-11)	–	–	B (a compound having 3 or more and less than 10 is denoted as B)	C (A compound having a KD ratio of 0.1 or more and less than 3 is denoted as C)	–	–
